Source: US12466832B2, “Monohydrate and crystalline forms of 6-[(3S,4S)-4-methyl-1-(pyrimidin-2-ylmethyl)pyrrolidin-3-yl]-3-tetrahydropyran-4-yl-7H-imidazo[1,5-a]pyrazin-8-one” (Cardurion Pharmaceuticals, Inc., priority 2018, dated 2025)
In brackets after ≈: the same amount, converted by molar mass.

Assays:
Assay type in all cases: physicochemical
[1] = Drying investigation of the two hydrates (vacuum oven, XRPD and TGA)
Experimental: Procedure: MH1 and MH2 were placed in a vacuum oven at 50° C. and RT for 24 h. The samples were then analysed by TGA and XRPD immediately after removal and after 4 hours standing under ambient conditions.

[2] = pH profiling solubility experiments; conditions: 24 hours
Experimental: Procedure: pH profiling solubility experiments were performed on MH1 and MH2. Solubility was determined in singlicate by suspending sufficient compound in relevant media (1.00 ml) to give a maximum final concentration as shown in the Table 17.
The suspensions were equilibrated at 25° C., on a Heidolph plate shaker set to 750 rpm for 24 hours. Samples were pH adjusted as required using 0.5M/1M HCl and 0.2M NaOH to within 0.1 of the desired pH unit (where possible). The pHs of the saturated solutions were measured (where applicable) and an appearance was recorded. The suspensions were filtered through a glass fibre C filter (particle retention […]) and diluted appropriately. Quantitation was by HPLC with reference to a standard solution of approximately 0.15 mg/ml in DMSO. Different volumes of the standard, diluted and undiluted sample solutions were injected. The solubility was calculated using the peak areas determined by integration of the peak found at the same retention time as the principal peak in the standard injection.

[3] = XRPD under vacuum
Experimental: For vacuum experiments the samples were prepared and analysed in an Anton Paar chromed sample holder. The measurement parameters are as per the standard screening data collection method (detailed above), at 25° C. with no vacuum (I2). A vacuum of around 50 mbar was then applied and the sample measured every 5 min until the anhydrate pattern was obtained for three consecutive measurements (to ensure complete dehydration, up to sample I8). The vacuum was then released and the sample analysed every 5 min for 6 measurements (until sample I22). The sample was then reanalyzed by XRPD after 1 h to check for complete rehydration.
MH1 was analysed at 25° C. with no vacuum. A vacuum of around 50 mbar was then applied and the sample measured every 5 min until the anhydrate pattern was obtained for three consecutive measurements (to ensure complete dehydration). The vacuum was then released and the sample analysed every 5 min for 6 measurements before the front of the sample stage was removed.
(§1) Procedure: A second batch of MH2 material was prepared using the same procedure. This sample was then analysed by VTXRPD and by XRPD under vacuum.

[4] = Variable temperature XRPD (VT XRPD)
Experimental: For variable temperature (VT) experiments the samples were prepared and analysed in an Anton Paar chromed sample holder. A heating/cooling rate of 10° C./min was used with a 2 min isothermal hold before the measurement started. The measurement parameters are as per the standard screening data collection method (detailed above). Measurements were taken at the following temperatures: 25, 50, 75, 100, 160, and 25° C. The sample was then reanalyzed by XRPD after 1 h to check for complete rehydration.
MH1 was analysed at 25, 50, 75, 100, 160 and 25° C. (10° C./min heating rate and a 2 min wait before the measurement started) on the Empyrean. The sample was then reanalysed by XRPD after 10 and 20 min to check for rehydration.
as §1

[5] = Compression studies

C[C@@H]1CN(Cc2ncccn2)C[C@H]1c1cn2c(C3CCOCC3)ncc2c(=O)[nH]1 [MH1, 6-[(3S,4S)-4-methyl-1-(pyrimidin-2-ylmethyl)pyrrolidin-3-yl]-3-tetrahydropyran-4-yl-7H-imidazo[1,5-a]pyrazin-8-one]
XRPD (T = 0, 50° C.) ([1]; vacuum oven 50° C. 24 h, immediately after removal): Matches MH1 and AH | TGA (T = 0, 50° C.) ([1]; vacuum oven 50° C. 24 h, immediately after removal, lost between 25 and 100° C.): 0.3% w/w lost between | TGA (T = 4 h, 50° C.) ([1]; vacuum oven 50° C. 24 h, then 4 hours ambient, lost between 25 and 100° C.): 2.7% w/w lost between | XRPD (T = 4 h, 50° C.) ([1]; vacuum oven 50° C. 24 h, then 4 hours at ambient conditions): Matches MH1 | XRPD (T = 0, RT) ([1]; vacuum oven RT 24 h, immediately after removal): Matches MH1 and AH | TGA (T = 0, RT) ([1]; vacuum oven RT 24 h, immediately after removal, lost between 25 and 100° C.): 0.3% w/w lost between | TGA (T = 4 h, RT) ([1]; vacuum oven RT 24 h, then 4 hours ambient, lost between 25 and 100° C.): 1.8% w/w lost between | XRPD (T = 4 h, RT) ([1]; vacuum oven RT 24 h, then 4 hours at ambient conditions): Matches MH1 | Solubility ([2]; media pH 1.2, 25° C., pH not maintained, final pH 5.02 (MH1-A), 6.63 (MH2-A)): >275 mg/mL | Solubility ([2]; media pH 4.0, 25° C., listed as MH1-B): >106 mg/mL | Solubility ([2]; media pH 6.5, 25° C., listed as MH1-C): >164 mg/mL | Solubility ([2]; media pH 7.5, 25° C., listed as MH1-D): 62 mg/mL (≈ 157 mM) | TGA post vacuum XRPD mass loss [3]: 3.4% | Time to fully hydrated by XRPD after ambient air admitted ([3]; after vacuum released and front of sample stage taken off): 15 min | Time under vacuum to conversion to the anhydrate by XRPD ([3]; vacuum of around 50 mbar, 25° C.): 10 min | TGA post VT XRPD mass loss [4]: 3.2% | Form by VT XRPD upon heating ([4]; 75° C.): fully anhydrous | Form by VT XRPD after cooling back ([4]; re-cooled to 25° C.): peaks corresponding to MH1 are present | Compression studies, form by XRPD [5]: no conversion to the anhydrate
